Measured values from patent publication EP0444659B1, “A pharmaceutical solution comprising derivatives of FK506” (FUJISAWA PHARMACEUTICAL CO., LTD., priority 1990, dated 1991).
Converted amounts (≈) assume the structure as drawn.

Legend:
Type in all cases: physicochemical
physchem = test: physchem
Source text: From the above point of view, the inventors of the present invention studied, at first, the solubility of the compound (I) in water. As a test compound, the inventors selected the following compound as a free form which has an excellent immunosupressive activity and is called FK 506 hereafter. R^1, R^2, R^8, R^23 = hydrogen R^7, R^9 = hydroxy R^14, R^15, R^16, R^17, R^18, R^19, R^22 = methyl R^10 = allyl R^20 = R^20a,H (R^20a = methoxy) X, Y = oxygen R^21 = R^21a,H (R^21a = hydroxy) n = 2 R^3, R^4 = form a second bond between the vicinal carbon atoms to which they are attached R^5, R^6 = form a second bond between the vicinal carbon atoms to which they are attached
The solubility of FK 506 in water is at most 3 µg/ml under ambient temperature. Accordingly, it is decided to add a surface active agent in order to increase the solubility of FK 506 in water to the level where the clinically effective amount of FK 506 is dissolved. […] As a surface active agent, a castor oil-surface active agent i.e., HCO-10, HCO-40, HCO-60 (trademark, prepared by Nikko Chemicals, respectively) are selected for examination.
It is conjectured from the result shown in Table 1 that the concentration of the surface active agent should be controlled at 1.43w/v% [about 150mg of the surface active agent against 1mg of FK506] to dissolve 0.1mg of FK 506 in 1ml of water, calculating based on the result that 0.035mg of FK 506 is dissolved in 1ml of 0.5w/v% HCO-60 aqueous solution at 20 °C. Accordingly, if it is desired to prepare 5mg/ml aqueous solution FK 506, the concentration of the surface active agent is estimated to come up to 87w/v% from the calculation based on the result of HCO-60, 20w/v%, 20°C. Such […] high concentration of surface active agent in aqueous solution should not be realized in practice of clinical field.

[1] = remaining percentage of FK 506 in aqueous solution with large amount of surface active agent (storage stability); conditions: FK 506 dissolved in water in the presence of large amount of surface active agent; Table 2 is an image
[2] = solubility of FK 506 in nonaqueous solvents; conditions: for solubility: ambient temperature
[3] = dilution of the solution with physiological saline: clarity, turbidity and crystal separation
Protocol: Nonaqueous solvent is, at the time of administrating into the human vascular tract, usually diluted with aqueous solvent such as physiological saline, since nonaqueous solvent has hemolysis action.
The experimental solution (1ml) of the following prescription 3 consisting of FK 506, surface active agent and nonaqueous solvent was diluted with physiological saline (100ml) to find that the clear appearance of prescription was kept unchanged.
Then several prescriptions of clear solution were further prepared altering the concentration of FK 506, the kind and the concentration of surface active agent, and were tested how change the clearity of the solution and whether separate out the crystal or not under the several condition of different degree of dilution.

C=CCC1C=C(C)CC(C)CC(OC)C2OC(O)(C(=O)C(=O)N3CCCCC3C(=O)OC(C(C)=CC3CCC(O)C(OC)C3)C(C)C(O)CC1=O)C(C)CC2OC (stereo not shown) [FK 506, 17-allyl-1,14-dihydroxy-12-[2-(4-hydroxy-3-methoxycyclohexyl)-1-methylvinyl]-23, 25-dimethoxy-13,19,21,27-tetramethyl-11, 28-dioxa-4-azatricyclo-[22.3.1.0^4.9] octacos-18-ene-2,3,10,16-tetraone]
amount of the surface active agent against 1mg of FK506 (physchem): about 150 mg
concentration of the surface active agent to prepare 5mg/ml aqueous solution FK 506 (physchem): 87 w/v%
concentration of the surface active agent to dissolve 0.1mg of FK 506 in 1ml of water (physchem; calculated from 0.035mg/ml in 0.5w/v% HCO-60 at 20 °C): 1.43 w/v%
solubility (physchem; hco-40 5 w/v% aqueous, solubility of FK506): 400 µg/mL (≈ 497 µM)
solubility (physchem; hco-40 10 w/v% aqueous, solubility of FK506): 780 µg/mL (≈ 970 µM)
solubility (physchem; hco-40 20 w/v% aqueous, solubility of FK506): 1520 µg/mL (≈ 1890 µM)
solubility (physchem; hco-60 0.1 w/v% aqueous, solubility of FK506): 5 µg/mL (≈ 6.22 µM)
solubility (physchem; hco-60 0.3 w/v% aqueous, solubility of FK506): 19 µg/mL (≈ 23.6 µM)
solubility (physchem; hco-60 0.5 w/v% aqueous, solubility of FK506): 35 µg/mL (≈ 43.5 µM)
solubility of FK506 (physchem; hco-60 5 w/v% aqueous): 290 µg/mL
solubility (physchem; hco-60 5 w/v% aqueous, solubility of FK506): 280 µg/mL (≈ 348 µM)
solubility of FK506 (physchem; hco-60 10 w/v% aqueous): 570 µg/mL
solubility (physchem; hco-60 10 w/v% aqueous, solubility of FK506): 610 µg/mL (≈ 759 µM)
solubility of FK506 (physchem; hco-60 20 w/v% aqueous): 1140 µg/mL
solubility (physchem; hco-60 20 w/v% aqueous, solubility of FK506): 1150 µg/mL (≈ 1430 µM)
solubility of FK506 (physchem; hco-60/hco-10 (4:1) 5 w/v%): 270 µg/mL
solubility (physchem; hco-60/hco-10 (4:1) 5 w/v%, solubility of FK506): 260 µg/mL (≈ 323 µM)
solubility of FK506 (physchem; hco-60/hco-10 (4:1) 10 w/v%): 560 µg/mL
solubility (physchem; hco-60/hco-10 (4:1) 10 w/v%, solubility of FK506): 560 µg/mL (≈ 696 µM)
solubility of FK506 (physchem; hco-60/hco-10 (4:1) 20 w/v%): 1140 µg/mL
solubility (physchem; hco-60/hco-10 (4:1) 20 w/v%, solubility of FK506): 1130 µg/mL (≈ 1410 µM)
solubility (physchem; water, solubility of FK 506 in water): ≤ 3 µg/mL
remaining percentage of FK 506 in aqueous solution (storage stability) [1]: stability for long period storage is not expectable
concentration at which FK 506 is dissolved in the experimented solvent ([2]; PEG 400, ethanol and propylene glycol (summary of Table 3)): more than 40 mg/ml
solubility ([2]; Solvent Ethanol): > 300000 µg/mL
solubility ([2]; Solvent PEG 400): > 40000 µg/mL
solubility ([2]; Solvent Propylene glycol): > 40000 µg/mL
Period till solution becomes turbid to crystallize FK506 ([3]; FK 506 5 mg/ml, dilution times with physiological saline 2, Cremophor®EL, ethanol/surface active agent 35/65): ≧7 days
Period till solution becomes turbid to crystallize FK506 ([3]; FK 506 5 mg/ml, dilution times with physiological saline 2, Cremophor®EL, ethanol/surface active agent 80/20): ≧7 days
Period till solution becomes turbid to crystallize FK506 ([3]; FK 506 5 mg/ml, dilution times with physiological saline 2, HCO-40, ethanol/surface active agent 40/60): ≧7 days
Period till solution becomes turbid to crystallize FK506 ([3]; FK 506 5 mg/ml, dilution times with physiological saline 2, HCO-40, ethanol/surface active agent 80/20): ≧7 days
Period till solution becomes turbid to crystallize FK506 ([3]; FK 506 5 mg/ml, dilution times with physiological saline 2, HCO-60, ethanol/surface active agent 35/65): ≧7 days
Period till solution becomes turbid to crystallize FK506 ([3]; FK 506 5 mg/ml, dilution times with physiological saline 2, HCO-60, ethanol/surface active agent 60/40): ≧7 days
Period till solution becomes turbid to crystallize FK506 ([3]; FK 506 5 mg/ml, dilution times with physiological saline 2, HCO-60, ethanol/surface active agent 80/20): ≧7 days
Period till solution becomes turbid to crystallize FK506 ([3]; FK 506 5 mg/ml, dilution times with physiological saline 100, Cremophor®EL, ethanol/surface active agent 35/65): ≧7 days
Period till solution becomes turbid to crystallize FK506 ([3]; FK 506 5 mg/ml, dilution times with physiological saline 100, Cremophor®EL, ethanol/surface active agent 80/20): ≧7 days
Period till solution becomes turbid to crystallize FK506 ([3]; FK 506 5 mg/ml, dilution times with physiological saline 100, HCO-40, ethanol/surface active agent 40/60): ≧7 days
Period till solution becomes turbid to crystallize FK506 ([3]; FK 506 5 mg/ml, dilution times with physiological saline 100, HCO-40, ethanol/surface active agent 80/20): ≧7 days
Period till solution becomes turbid to crystallize FK506 ([3]; FK 506 5 mg/ml, dilution times with physiological saline 100, HCO-60, ethanol/surface active agent 35/65): ≧7 days
Period till solution becomes turbid to crystallize FK506 ([3]; FK 506 5 mg/ml, dilution times with physiological saline 100, HCO-60, ethanol/surface active agent 60/40): ≧7 days
Period till solution becomes turbid to crystallize FK506 ([3]; FK 506 5 mg/ml, dilution times with physiological saline 100, HCO-60, ethanol/surface active agent 80/20): ≧7 days
Period till solution becomes turbid to crystallize FK506 ([3]; FK 506 10 mg/ml, dilution times with physiological saline 2, Cremophor®EL, ethanol/surface active agent 35/65): ≧7 days
Period till solution becomes turbid to crystallize FK506 ([3]; FK 506 10 mg/ml, dilution times with physiological saline 2, Cremophor®EL, ethanol/surface active agent 80/20): ≧7 days
Period till solution becomes turbid to crystallize FK506 ([3]; FK 506 10 mg/ml, dilution times with physiological saline 2, HCO-40, ethanol/surface active agent 40/60): ≧7 days
Period till solution becomes turbid to crystallize FK506 ([3]; FK 506 10 mg/ml, dilution times with physiological saline 2, HCO-40, ethanol/surface active agent 80/20): ≧7 days
Period till solution becomes turbid to crystallize FK506 ([3]; FK 506 10 mg/ml, dilution times with physiological saline 2, HCO-60, ethanol/surface active agent 35/65): ≧7 days
Period till solution becomes turbid to crystallize FK506 ([3]; FK 506 10 mg/ml, dilution times with physiological saline 2, HCO-60, ethanol/surface active agent 60/40): ≧7 days
Period till solution becomes turbid to crystallize FK506 ([3]; FK 506 10 mg/ml, dilution times with physiological saline 2, HCO-60, ethanol/surface active agent 80/20): ≧7 days
Period till solution becomes turbid to crystallize FK506 ([3]; FK 506 10 mg/ml, dilution times with physiological saline 100, Cremophor®EL, ethanol/surface active agent 35/65): ≧7 days
Period till solution becomes turbid to crystallize FK506 ([3]; FK 506 10 mg/ml, dilution times with physiological saline 100, Cremophor®EL, ethanol/surface active agent 80/20): ≧7 days
Period till solution becomes turbid to crystallize FK506 ([3]; FK 506 10 mg/ml, dilution times with physiological saline 100, HCO-40, ethanol/surface active agent 40/60): ≧7 days
Period till solution becomes turbid to crystallize FK506 ([3]; FK 506 10 mg/ml, dilution times with physiological saline 100, HCO-40, ethanol/surface active agent 80/20): ≧7 days
Period till solution becomes turbid to crystallize FK506 ([3]; FK 506 10 mg/ml, dilution times with physiological saline 100, HCO-60, ethanol/surface active agent 35/65): ≧7 days
Period till solution becomes turbid to crystallize FK506 ([3]; FK 506 10 mg/ml, dilution times with physiological saline 100, HCO-60, ethanol/surface active agent 60/40): ≧7 days
Period till solution becomes turbid to crystallize FK506 ([3]; FK 506 10 mg/ml, dilution times with physiological saline 100, HCO-60, ethanol/surface active agent 80/20): ≧7 days
Period till solution becomes turbid to crystallize FK506 ([3]; FK 506 25 mg/ml, dilution times with physiological saline 2, Cremophor®EL, ethanol/surface active agent 35/65): ≧7 days
Period till solution becomes turbid to crystallize FK506 ([3]; FK 506 25 mg/ml, dilution times with physiological saline 2, Cremophor®EL, ethanol/surface active agent 80/20): ≧7 days
Period till solution becomes turbid to crystallize FK506 ([3]; FK 506 25 mg/ml, dilution times with physiological saline 2, HCO-40, ethanol/surface active agent 40/60): ≧7 days
Period till solution becomes turbid to crystallize FK506 ([3]; FK 506 25 mg/ml, dilution times with physiological saline 2, HCO-40, ethanol/surface active agent 80/20): ≧7 days
Period till solution becomes turbid to crystallize FK506 ([3]; FK 506 25 mg/ml, dilution times with physiological saline 2, HCO-60, ethanol/surface active agent 35/65): ≧7 days
Period till solution becomes turbid to crystallize FK506 ([3]; FK 506 25 mg/ml, dilution times with physiological saline 2, HCO-60, ethanol/surface active agent 60/40): ≧7 days
Period till solution becomes turbid to crystallize FK506 ([3]; FK 506 25 mg/ml, dilution times with physiological saline 2, HCO-60, ethanol/surface active agent 80/20): ≧7 days
Period till solution becomes turbid to crystallize FK506 ([3]; FK 506 25 mg/ml, dilution times with physiological saline 100, Cremophor®EL, ethanol/surface active agent 35/65): ≧7 days
Period till solution becomes turbid to crystallize FK506 ([3]; FK 506 25 mg/ml, dilution times with physiological saline 100, Cremophor®EL, ethanol/surface active agent 80/20): ≧1 days
Period till solution becomes turbid to crystallize FK506 ([3]; FK 506 25 mg/ml, dilution times with physiological saline 100, HCO-40, ethanol/surface active agent 40/60): ≧7 days
Period till solution becomes turbid to crystallize FK506 ([3]; FK 506 25 mg/ml, dilution times with physiological saline 100, HCO-40, ethanol/surface active agent 80/20): ≧1 days
Period till solution becomes turbid to crystallize FK506 ([3]; FK 506 25 mg/ml, dilution times with physiological saline 100, HCO-60, ethanol/surface active agent 35/65): ≧7 days
Period till solution becomes turbid to crystallize FK506 ([3]; FK 506 25 mg/ml, dilution times with physiological saline 100, HCO-60, ethanol/surface active agent 60/40): ≧1 days
Period till solution becomes turbid to crystallize FK506 ([3]; FK 506 25 mg/ml, dilution times with physiological saline 100, HCO-60, ethanol/surface active agent 80/20): ≧7 days
Period till solution becomes turbid to crystallize FK506 ([3]; FK 506 50 mg/ml, dilution times with physiological saline 2, Cremophor®EL, ethanol/surface active agent 35/65): ≧7 days
Period till solution becomes turbid to crystallize FK506 ([3]; FK 506 50 mg/ml, dilution times with physiological saline 2, Cremophor®EL, ethanol/surface active agent 80/20): ≧1 days
Period till solution becomes turbid to crystallize FK506 ([3]; FK 506 50 mg/ml, dilution times with physiological saline 2, HCO-40, ethanol/surface active agent 40/60): ≧7 days
Period till solution becomes turbid to crystallize FK506 ([3]; FK 506 50 mg/ml, dilution times with physiological saline 2, HCO-40, ethanol/surface active agent 80/20): ≧1 days
Period till solution becomes turbid to crystallize FK506 ([3]; FK 506 50 mg/ml, dilution times with physiological saline 2, HCO-60, ethanol/surface active agent 35/65): ≧7 days
Period till solution becomes turbid to crystallize FK506 ([3]; FK 506 50 mg/ml, dilution times with physiological saline 2, HCO-60, ethanol/surface active agent 60/40): ≧7 days
Period till solution becomes turbid to crystallize FK506 ([3]; FK 506 50 mg/ml, dilution times with physiological saline 2, HCO-60, ethanol/surface active agent 80/20): ≧7 days
